Reference: patent US9498465B2, “Topical compositions in the form of a gel containing a particular solubilized retinoid” (GALDERMA RESEARCH & DEVELOPMENT, priority 2012, dated 2016)

Tests used:
Assay type in all cases: physicochemical
[1] = Maximum solubility in hydrophilic excipients, determined by HPLC
Description: In order to produce an aqueous-glycolic gel containing an amount of ethanol of less than 30%, in which compound A is solubilized, pre-formulation studies were carried out in order to reveal the excipients enabling good solubilization and also good stability of the active agent. • (1) List of the hydrophilic excipients or mixture of hydrophilic excipients in which maximum solubility was determined by HPLC: […]

[2] = Stability of compound A in its principal solvents and cosolvents, determined by HPLC
[3] = Tests introducing ST-cyclomethicone 5NF: recrystallization of compound A
Description: In order to obtain an acceptable feel for acne (non-greasy, non-tacky) while at the same time keeping good solubility of compound A in the formula, tests introducing ST-cyclomethicone 5 were carried out, in the knowledge that ST-cyclomethicone 5NF is a nonsolvent of compound A and that this addition may therefore cause recrystallization of compound A: […]

CC(C)(C)c1cc(-c2cc(-c3ccc(C(=O)O)cc3)ccc2OCCO)ccc1N1CCCC1 [Compound A, 3″-tert-butyl-4′-(2-hydroxyethoxy)-4″-pyrrolidin-1-yl[1,1′;3′,1″]terphenyl-4-carboxylic acid]
Maximum solubility as % ([1]; in Arlasolve DMI (Dimethyl Isosorbide)): 0.4% | Maximum solubility as % ([1]; in Benzyl Alcohol): 2.3880% | Maximum solubility as % ([1]; in Dipropylene Glycol Care (Dipropylene Glycol)): 0.4% | Maximum solubility as % ([1]; in Ethanol 95-96%): 0.92% | Maximum solubility as % ([1]; in Glycerine (Glycerin)): 0.002% | Maximum solubility as % ([1]; in Hexylene Glycol): 0.4% | Maximum solubility as % ([1]; in Hydrolite 5P (Pentylene glycol)): 0.482% | Maximum solubility as % ([1]; in PEG 400 (Peg-8)): 1.52% | Maximum solubility as % ([1]; in Pharmasolve (Methyl Pyrolidone)): 4.84% | Maximum solubility as % ([1]; in Phenoxetol (Phenoxyethanol)): 1.957% | Maximum solubility as % ([1]; in Propylene Glycol): 0.111% | Maximum solubility as % ([1]; in Transcutol (Ethoxy diglycol)): 4.17% | Solubility (in words) ([1]; in glycerine): virtually insoluble | Stability results ([2]; 0.001% in Hexylene Glycol): Unstable | Stability results ([2]; 0.005% in Ethanol 95-96%): Stable | Stability results ([2]; 0.005% in Ethanol 95-96%, listed as compound A): stable | Stability results ([2]; 0.01% in Benzyl Alcohol): Unstable | Stability results ([2]; 0.03% in Arlasolve DMI (Dimethyl Isosorbide)): Unstable | Stability results ([2]; 0.03% in Hydrolite 5P (Pentylene glycol)): Unstable | Stability results ([2]; 0.03% in Pharmasolve (Methyl Pyrolidone)): Unstable | Stability results ([2]; 0.03% in Transcutol (Ethoxy diglycol)): Unstable | Stability results ([2]; 0.05% in Phenoxetol (Phenoxyethanol)): Stable | Stability results ([2]; 0.05% in Phenoxetol (Phenoxyethanol), listed as compound A): stable | Stability results ([2]; 0.05% in Propylene Glycol, listed as COMPOUND A): Stable | Stability results ([2]; 0.05% in Propylene Glycol, listed as compound A): stable | Stability results ([2]; 0.3% in Dipropylene Glycol Care (Dipropylene Glycol), listed as COMPOUND A): Stable | Stability results ([2]; 0.3% in Dipropylene Glycol Care (Dipropylene Glycol), listed as compound A): stable | Stability results ([2]; 0.3% in PEG 400 (Poly Ethylene Glycol)): Unstable | Recrystallization of COMPOUND A ([3]; formula with ST-Cyclomethicone 5NF 0%): No | Recrystallization of COMPOUND A ([3]; formula with ST-Cyclomethicone 5NF 2%): No | Recrystallization of COMPOUND A ([3]; formula with ST-Cyclomethicone 5NF 5%): Re- | Solubility (in words) ([3]; in ST-cyclomethicone 5NF): nonsolvent
